The record followed here is patent US8026359B2, “Fungicidal heterocyclic amines” (E.I. du Pont de Nemours and Company, priority 2007, dated 2011).

Common to all, as to assay type: in vivo
Assay [1] deals with Erysiphe graminis f. sp. tritici. The experiment in a line: Test A: wheat powdery mildew, preventive spray on wheat seedlings. The note with it: 200 ppm, 100 = 100% disease control, 0 = no control relative to controls; for pest or weed control at 200 ppm: Blumeria graminis, 192 h, read-out: Test A disease control rating. From the text:
(§1) General protocol for preparing test suspensions for Tests A-R: The test compounds were first dissolved in acetone in an amount equal to 3% of the final volume and then suspended at the desired concentration (in ppm) in acetone and purified water (50/50 mix) containing 250 ppm of the surfactant Trem® 014 (polyhydric alcohol esters). The resulting test suspensions were then used in tests A-R. In Tests A-M, compounds were sprayed as a 200 ppm test suspension (equivalent to a rate of 500 g/ha) or as a 40 ppm test suspension to the point of runoff on the test plants. In Tests N-R, compounds were sprayed as a 100 g/ha test suspension (equivalent to a rate of 100 ppm) on the test plants at an application volume of 1000 L/ha. The test suspension was sprayed to the point of run-off on wheat seedlings.

Assay [2] concerns Puccinia recondita f. sp. tritici. Description: Test B: wheat leaf rust, preventive spray on wheat seedlings. To be noted: 200 ppm, 100 = 100% disease control, 0 = no control relative to controls; for pest or weed control at 200 ppm: Puccinia recondita, 192 h, read-out: Test B disease control rating.
Text: as §1

A further assay has as its system Septoria nodorum. The experiment in a line: Test C: wheat glume blotch, preventive spray on wheat seedlings. To be noted: 200 ppm, 100 = 100% disease control, 0 = no control relative to controls; for pest or weed control at 200 ppm: Parastagonospora nodorum, 216 h, read-out: Test C disease control rating.
Text: as §1

A further assay concerns Septoria tritici. Description: Test D: wheat leaf blotch, preventive spray on wheat seedlings. The note with it: 200 ppm, 100 = 100% disease control, 0 = no control relative to controls; for pest or weed control at 200 ppm: Zymoseptoria tritici, 504 h, read-out: Test D disease control rating.
Text: as §1

Another assay relates to Fusarium graminearum. The experiment in a line: whole plant or invertebrate. To be noted: for Test E disease control rating: 200 ppm, 100 = 100% disease control, 0 = no control relative to controls; for pest or weed control at 200 ppm: Fusarium graminearum, in Triticum aestivum, 192 h, read-out: Test E disease control rating.
The subject of a further assay is Botrytis cinerea. The experiment in a line: Test F: tomato Botrytis, preventive spray on tomato seedlings. The note with it: 200 ppm, 100 = 100% disease control, 0 = no control relative to controls; for pest or weed control at 200 ppm: Botrytis cinerea, 120 h, read-out: Test F disease control rating.
Text: as §1, with “tomato” for “wheat”

The subject of assay [3] is Colletotrichum orbiculare. Description: Test I: cucumber Colletotrichum anthracnose, preventive spray on cucumber seedlings. To be noted: 100 = 100% disease control, 0 = no control relative to controls; for Test I disease control rating: 200 ppm; for pest or weed control at 200 ppm: Colletotrichum orbiculare, 144 h, read-out: Test I disease control rating.
Text: as §1, with “cucumber” for “wheat”

Turning to `Cc1ccc2ccccc2c1Nc1cc(-c2ccnc(NC3CCOCC3)n2)ccn1` [Compound 89], the “Test A disease control rating” value in assay [1] was found to be 74%. In addition, the “Test B disease control rating” value in assay [2] is 95%. Besides, in the assay on Septoria nodorum, the “Test C disease control rating” value turned out to be 100%. The “Test D disease control rating” value in the assay with Septoria tritici was determined as 0%. Besides, the “Test E disease control rating” value in the assay on Fusarium graminearum is given as 89%. Moreover, the “Test F disease control rating” value in the assay with Botrytis cinerea was found to be 99%. Moreover, the “Test I disease control rating” value in assay [3] is on record as 0%.
For `COCCC(C)Nc1nccc(-c2ccnc(Nc3cccc(F)c3)c2)n1` (stereo not drawn) [Compound 84, 4-[2-[(3-fluorophenyl)amino]-4-pyridinyl]-N-(3-methoxy-1-methylpropyl)-2-pyrimidinamine], the pest or weed control at 200 ppm in assay [1] is 28%; in assay [2], 91%; in the assay on Septoria nodorum it was 99%; in the assay with Septoria tritici it was 59%; in the assay with Fusarium graminearum, 0%; in the assay with Botrytis cinerea it was 99%. The pest or weed control at 200 ppm in assay [3] was determined as 0%.
With `COCC(C)Nc1nccc(-c2ccnc(Nc3ccc(C#N)cc3)c2)n1` (stereo not drawn) [Compound 63], the “Test A disease control rating” value in assay [1] was determined as 0%. The “Test B disease control rating” value in assay [2] turned out to be 80%. Further, in the assay on Septoria nodorum, the “Test C disease control rating” value was found to be 0%. Moreover, the “Test D disease control rating” value with Septoria tritici was 41%. Further, the “Test E disease control rating” value in the assay with Fusarium graminearum stood at 0%. In addition, the “Test F disease control rating” value with Botrytis cinerea worked out at 0%. Besides, in assay [3], the “Test I disease control rating” value amounted to 90%.
`COC[C@@H](C)Nc1nccc(-c2ccnc(Nc3cccc(F)c3)c2)n1` [Compound 68]: in assay [1], the “Test A disease control rating” value is 0%. For the same compound, the “Test B disease control rating” value in assay [2] is listed as 95%. Moreover, in the assay on Septoria nodorum, the “Test C disease control rating” value stood at 99%. Further, the “Test D disease control rating” value with Septoria tritici worked out at 96%. For the same compound, the “Test E disease control rating” value with Fusarium graminearum stood at 0%. In addition, the “Test F disease control rating” value in the assay on Botrytis cinerea came to 93%.
`COc1cccc(C)c1Nc1cc(-c2ccnc(NC3CCOCC3)n2)ccn1` [Compound 88]: the “Test A disease control rating” value in assay [1] was 99%. Also, the “Test B disease control rating” value in assay [2] is 100%. The “Test C disease control rating” value in the assay with Septoria nodorum was 97%. For the same compound, the “Test D disease control rating” value with Septoria tritici was determined as 0%. Besides, the “Test E disease control rating” value with Fusarium graminearum is reported as 91%. Further, the “Test F disease control rating” value in the assay on Botrytis cinerea is given as 0%. Besides, in assay [3], the “Test I disease control rating” value came out at 0%.
As to `Fc1cccc(Nc2cc(-c3ccnc(NCC4CCCO4)n3)ccn2)c1` (stereo not drawn) [Compound 83, 4-[2-[(3-fluorophenyl)amino]-4-pyridinyl]-N-[(tetrahydro-2-furanyl)methyl]-2-pyrimidinamine], the pest or weed control at 200 ppm in assay [1] amounted to 0%; in assay [2], 95%; in the assay with Septoria nodorum, 99%; in the assay with Septoria tritici it was 92%; in the assay with Fusarium graminearum, 0%; in the assay with Botrytis cinerea, 53%. For the same compound, the pest or weed control at 200 ppm in assay [3] came to 0%.
Take `FC(F)(F)c1cccc(Cl)c1Nc1cc(-c2ccnc(NC3CCOCC3)n2)ccn1` [Compound 98]: in assay [1], the “Test A disease control rating” value amounted to 89%. Also, in assay [2], the “Test B disease control rating” value came to 99%. The “Test C disease control rating” value with Septoria nodorum was 99%. Further, the “Test D disease control rating” value in the assay on Septoria tritici is 83%. Moreover, the “Test E disease control rating” value with Fusarium graminearum stood at 97%. The “Test F disease control rating” value in the assay on Botrytis cinerea amounted to 91%. The “Test I disease control rating” value in assay [3] came out at 0%.
As to `C[C@H](CO)Nc1nccc(-c2ccnc(Nc3cccc(F)c3)c2)n1` [Compound 57], the “Test A disease control rating” value in assay [1] amounted to 0%. In addition, the “Test B disease control rating” value in assay [2] amounted to 95%. Also, the “Test C disease control rating” value in the assay with Septoria nodorum was found to be 51%. Further, the “Test D disease control rating” value in the assay on Septoria tritici turned out to be 9%. Further, in the assay with Fusarium graminearum, the “Test E disease control rating” value is on record as 0%. The “Test F disease control rating” value with Botrytis cinerea stood at 0%. Besides, in assay [3], the “Test I disease control rating” value is 0%.
As to `CC(C)Nc1nccc(-c2ccnc(Nc3cccc(F)c3)c2)n1` [Compound 60], the “Test A disease control rating” value in assay [1] is recorded as 97%. In addition, the “Test B disease control rating” value in assay [2] is reported as 95%. Besides, the “Test C disease control rating” value in the assay with Septoria nodorum is on record as 100%. The “Test D disease control rating” value in the assay on Septoria tritici came out at 18%. In addition, the “Test E disease control rating” value in the assay with Fusarium graminearum came to 0%. Besides, in the assay with Botrytis cinerea, the “Test F disease control rating” value stood at 61%. Besides, the “Test I disease control rating” value in assay [3] amounted to 0%.
Regarding `COCC(C)Nc1nccc(-c2ccnc(Nc3c(C)cccc3Cl)c2)n1` (stereo not drawn) [Compound 76, 4-[2-[(2-chloro-6-methylphenyl)amino]-4-pyridinyl]-N-(2-methoxy-1-methylethyl)-2-pyrimidinamine], the pest or weed control at 200 ppm in assay [1] turned out to be 36%; in assay [2], 99%; in the assay on Septoria nodorum, 99%; in the assay on Septoria tritici, 87%; with Fusarium graminearum, 93%; in the assay on Botrytis cinerea it was 97%. Also, the pest or weed control at 200 ppm in assay [3] is 72%.
Regarding `CCNc1nccc(-c2ccnc(Nc3cccc(F)c3)c2)n1` [Compound 61], the “Test A disease control rating” value in assay [1] was found to be 0%. In assay [2], the “Test B disease control rating” value is recorded as 96%. Also, the “Test C disease control rating” value with Septoria nodorum amounted to 99%. Besides, the “Test D disease control rating” value with Septoria tritici turned out to be 32%. Besides, in the assay on Fusarium graminearum, the “Test E disease control rating” value is reported as 0%. Besides, the “Test F disease control rating” value in the assay with Botrytis cinerea is 0%. Moreover, the “Test I disease control rating” value in assay [3] amounted to 0%.
As to `COCC(C)Nc1nccc(-c2ccnc(Nc3c(Cl)cccc3C(F)(F)F)c2)n1` (stereo not drawn) [Compound 97], the “Test A disease control rating” value in assay [1] came to 0%. Further, the “Test B disease control rating” value in assay [2] was found to be 97%. Besides, the “Test C disease control rating” value in the assay with Septoria nodorum is listed as 100%. Besides, in the assay with Septoria tritici, the “Test D disease control rating” value came out at 67%. In addition, in the assay with Fusarium graminearum, the “Test E disease control rating” value was determined as 48%. Moreover, the “Test F disease control rating” value with Botrytis cinerea amounted to 99%. Further, in assay [3], the “Test I disease control rating” value was 93%.
In the case of `COCC(C)Nc1nccc(-c2ccnc(Nc3cc(F)ccc3C)c2)n1` (stereo not drawn) [Compound 91], the “Test A disease control rating” value in assay [1] worked out at 97%. Besides, the “Test B disease control rating” value in assay [2] is 99%. In the assay on Septoria nodorum, the “Test C disease control rating” value stood at 94%. The “Test D disease control rating” value with Septoria tritici was found to be 7%. Further, the “Test E disease control rating” value in the assay with Fusarium graminearum was 19%. Also, in the assay with Botrytis cinerea, the “Test F disease control rating” value is recorded as 98%. Also, the “Test I disease control rating” value in assay [3] is on record as 0%.
For `CCNNc1nccc(-c2ccnc(Nc3cccc(F)c3)c2)n1` [Compound 66], the “Test A disease control rating” value in assay [1] came out at 0%. Besides, in assay [2], the “Test B disease control rating” value stood at 85%. Besides, the “Test C disease control rating” value in the assay with Septoria nodorum was determined as 99%. Further, the “Test D disease control rating” value in the assay with Septoria tritici is 92%. Moreover, the “Test E disease control rating” value with Fusarium graminearum is 64%. The “Test F disease control rating” value in the assay with Botrytis cinerea was found to be 84%.
Take `COC[C@H](C)Nc1nccc(-c2ncnc(Nc3cncc(F)c3)n2)n1` [Compound 35]: the “Test A disease control rating” value in assay [1] is listed as 72%. Further, the “Test B disease control rating” value in assay [2] was 100%. In addition, the “Test C disease control rating” value in the assay with Septoria nodorum was found to be 98%. In addition, in the assay on Septoria tritici, the “Test D disease control rating” value is given as 7%. The “Test E disease control rating” value in the assay with Fusarium graminearum stood at 98%. The “Test F disease control rating” value in the assay with Botrytis cinerea was 91%.
With `CCCC(C)Nc1nccc(-c2ccnc(Nc3cccc(F)c3)c2)n1` (stereo not drawn) [Compound 59], the “Test A disease control rating” value in assay [1] turned out to be 87%. Further, the “Test C disease control rating” value in the assay with Septoria nodorum was 99%. The “Test D disease control rating” value in the assay on Septoria tritici is given as 0%. In the assay on Fusarium graminearum, the “Test E disease control rating” value is on record as 0%. In addition, in the assay on Botrytis cinerea, the “Test F disease control rating” value is 57%. In addition, the “Test I disease control rating” value in assay [3] is 0%.
